Source: ChEMBL document CHEMBL4152341, “Small Molecules Simultaneously Inhibiting p53-Murine Double Minute 2 (MDM2) Interaction and Histone Deacetylases (HDACs): Discovery of Novel Multitargeting Antitumor Agents” (J Med Chem, 2018)

Experiments:
[1] = Cmax in Sprague-Dawley rat at 2 mg/kg, iv administered as bolus dose by LC-MS/MS analysis; format: ADME, organism-based; design: dose 2 mg/kg, route intravenous; details: in vivo
[2] = system: Mus musculus; experiment: Toxicity in human A549 cells xenografted in BALB/C nude mouse assessed as induction of adverse effects at 100 to 150 mg/kg, po administered once daily for 21 days starting day 11 after tumor cells implantation; format: organism-based; details: in vivo, 504 h
[3] = system: A549; experiment: cells; details: Homo sapiens, A549, 48 h, read-out: Activity
[4] = Cmax in Sprague-Dawley rat at 20 mg/kg, po administered via gavage by LC-MS/MS analysis; format: ADME, organism-based; design: dose 20 mg/kg, route oral; details: in vivo
[5] = system: A549; experiment: cells; details: Homo sapiens, A549, 48 h, read-out: Activity; remark: listed apart in the source
[6] = system: Rattus norvegicus; experiment: AUC (0 to infinity) in Sprague-Dawley rat at 20 mg/kg, po administered via gavage by LC-MS/MS analysis; format: ADME, organism-based; design: dose 20 mg/kg, route oral, time infinity; details: in vivo
[7] = system: Rattus norvegicus; experiment: Clearance in Sprague-Dawley rat at 2 mg/kg, iv administered as bolus dose by LC-MS/MS analysis; format: ADME, organism-based; details: in vivo
[8] = molecular target: T1, Histone deacetylase 8 (Homo sapiens, UniProt Q9BY41); experiment: Inhibition of HDAC8 (unknown origin) after 30 mins by fluorescence assay
T1 sequence (Q9BY41 whole entry): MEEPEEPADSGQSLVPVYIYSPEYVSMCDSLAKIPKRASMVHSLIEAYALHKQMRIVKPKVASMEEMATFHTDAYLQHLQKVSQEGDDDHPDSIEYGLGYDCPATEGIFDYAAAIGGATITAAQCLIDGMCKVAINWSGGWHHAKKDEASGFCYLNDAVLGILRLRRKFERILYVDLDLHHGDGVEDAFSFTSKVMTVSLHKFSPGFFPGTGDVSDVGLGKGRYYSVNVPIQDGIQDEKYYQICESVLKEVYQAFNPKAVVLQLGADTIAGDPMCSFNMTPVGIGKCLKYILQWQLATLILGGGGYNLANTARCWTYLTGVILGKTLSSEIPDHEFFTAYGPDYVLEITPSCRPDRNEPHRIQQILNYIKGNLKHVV

[9] = system: A549; experiment: Antitumor activity against human A549 cells xenografted in BALB/C nude mouse assessed as inhibition of tumor growth administered orally once daily for 21 days starting day 11 after tumor cells implantation; format: functional, cell-based
[10] = system: Mus musculus; experiment: Toxicity in human A549 cells xenografted in BALB/C nude mouse assessed as body weight loss at 100 to 150 mg/kg, po administered once daily for 21 days starting day 11 after tumor cells implantation; format: organism-based; details: in vivo, 504 h
[11] = system: A549; experiment: animal or person; format: functional, Homo sapiens; details: Mus musculus, A549, po, read-out: TGI
[12] = system: Rattus norvegicus; experiment: Oral bioavailability in Sprague-Dawley rat at 20 mg/kg administered via gavage by LC-MS/MS analysis; format: ADME, organism-based; details: in vivo
[13] = molecular target: T2, Protein deacetylase HDAC6 (Homo sapiens, UniProt Q9UBN7); experiment: Inhibition of HDAC6 (unknown origin) after 30 mins by fluorescence assay
T2 sequence (Q9UBN7 whole entry): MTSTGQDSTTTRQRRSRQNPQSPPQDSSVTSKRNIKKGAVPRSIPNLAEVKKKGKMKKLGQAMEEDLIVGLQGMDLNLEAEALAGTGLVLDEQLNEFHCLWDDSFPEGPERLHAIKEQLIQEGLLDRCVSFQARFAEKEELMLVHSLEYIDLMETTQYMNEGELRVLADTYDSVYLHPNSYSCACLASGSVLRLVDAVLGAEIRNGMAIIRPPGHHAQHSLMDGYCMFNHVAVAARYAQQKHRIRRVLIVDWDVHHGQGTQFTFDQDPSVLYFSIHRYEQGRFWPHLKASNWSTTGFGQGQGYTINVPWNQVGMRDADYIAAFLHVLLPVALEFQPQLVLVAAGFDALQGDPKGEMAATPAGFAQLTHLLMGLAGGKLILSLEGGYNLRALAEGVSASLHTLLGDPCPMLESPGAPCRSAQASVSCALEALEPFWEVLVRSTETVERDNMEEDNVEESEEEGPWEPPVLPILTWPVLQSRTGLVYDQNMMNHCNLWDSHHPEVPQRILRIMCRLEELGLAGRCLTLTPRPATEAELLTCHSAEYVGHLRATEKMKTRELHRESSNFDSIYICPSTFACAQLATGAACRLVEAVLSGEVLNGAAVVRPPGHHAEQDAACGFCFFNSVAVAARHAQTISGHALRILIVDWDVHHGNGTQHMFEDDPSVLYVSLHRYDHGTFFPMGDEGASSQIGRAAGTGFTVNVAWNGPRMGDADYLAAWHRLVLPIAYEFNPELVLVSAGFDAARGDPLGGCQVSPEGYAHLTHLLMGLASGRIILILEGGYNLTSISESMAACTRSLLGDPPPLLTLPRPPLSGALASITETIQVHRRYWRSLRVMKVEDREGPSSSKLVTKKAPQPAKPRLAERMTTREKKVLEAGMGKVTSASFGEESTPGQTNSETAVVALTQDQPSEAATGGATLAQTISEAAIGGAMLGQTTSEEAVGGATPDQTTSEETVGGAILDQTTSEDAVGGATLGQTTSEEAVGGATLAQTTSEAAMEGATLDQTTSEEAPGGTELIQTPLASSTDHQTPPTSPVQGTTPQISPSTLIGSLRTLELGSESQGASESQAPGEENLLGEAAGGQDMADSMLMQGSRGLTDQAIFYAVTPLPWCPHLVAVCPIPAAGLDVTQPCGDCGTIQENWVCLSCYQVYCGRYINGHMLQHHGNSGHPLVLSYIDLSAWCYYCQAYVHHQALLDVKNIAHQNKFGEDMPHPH

[14] = system: MCF7; experiment: cells; details: Homo sapiens, MCF7, 72 h
Description: Antiproliferative activity against human MCF7 cells after 72 hrs by CCK8 assay

[15] = system: A549; experiment: Antitumor activity against human A549 cells xenografted in BALB/C nude mouse assessed as inhibition of tumor growth at 150 mg/kg, po administered once daily for 21 days starting day 11 after tumor cells implantation; format: functional; details: read-out: TGI
[16] = Tmax in Sprague-Dawley rat at 20 mg/kg, po administered via gavage by LC-MS/MS analysis; format: ADME, organism-based; details: in vivo
[17] = Terminal half life in Sprague-Dawley rat at 20 mg/kg, po administered via gavage by LC-MS/MS analysis; format: ADME, organism-based; details: in vivo, read-out: beta t1/2 (converted)
[18] = system: A549; experiment: Antiproliferative activity against human A549 cells after 72 hrs by CCK8 assay; format: functional, cell-based; details: A549, 72 h
[19] = Tmax in Sprague-Dawley rat at 2 mg/kg, iv administered as bolus dose by LC-MS/MS analysis; format: ADME, organism-based; details: in vivo
[20] = molecular target: E3 ubiquitin-protein ligase Mdm2 (Homo sapiens, UniProt Q00987); experiment: Inhibition of MDM2 (unknown origin) preincubated for 30 mins by fluorescence polarization assay
Chain of E3 ubiquitin-protein ligase Mdm2 (Q00987 whole entry): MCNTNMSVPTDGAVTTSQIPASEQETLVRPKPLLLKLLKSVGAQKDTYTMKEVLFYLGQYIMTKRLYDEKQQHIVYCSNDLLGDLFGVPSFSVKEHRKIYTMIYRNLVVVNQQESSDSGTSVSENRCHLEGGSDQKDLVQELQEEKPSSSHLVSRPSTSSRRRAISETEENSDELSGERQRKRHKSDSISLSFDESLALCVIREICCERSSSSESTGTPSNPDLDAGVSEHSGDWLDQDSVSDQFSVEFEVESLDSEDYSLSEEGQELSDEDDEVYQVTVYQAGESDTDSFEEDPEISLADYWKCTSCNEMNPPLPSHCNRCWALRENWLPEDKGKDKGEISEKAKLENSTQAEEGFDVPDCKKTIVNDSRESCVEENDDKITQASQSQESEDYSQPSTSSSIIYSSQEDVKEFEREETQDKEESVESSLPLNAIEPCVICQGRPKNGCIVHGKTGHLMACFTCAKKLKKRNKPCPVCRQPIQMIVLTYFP

[21] = molecular target: Histone deacetylase 3 (Homo sapiens, UniProt O15379); experiment: Inhibition of HDAC3 (unknown origin) after 30 mins by fluorescence assay
Chain of Histone deacetylase 3 (O15379 whole entry): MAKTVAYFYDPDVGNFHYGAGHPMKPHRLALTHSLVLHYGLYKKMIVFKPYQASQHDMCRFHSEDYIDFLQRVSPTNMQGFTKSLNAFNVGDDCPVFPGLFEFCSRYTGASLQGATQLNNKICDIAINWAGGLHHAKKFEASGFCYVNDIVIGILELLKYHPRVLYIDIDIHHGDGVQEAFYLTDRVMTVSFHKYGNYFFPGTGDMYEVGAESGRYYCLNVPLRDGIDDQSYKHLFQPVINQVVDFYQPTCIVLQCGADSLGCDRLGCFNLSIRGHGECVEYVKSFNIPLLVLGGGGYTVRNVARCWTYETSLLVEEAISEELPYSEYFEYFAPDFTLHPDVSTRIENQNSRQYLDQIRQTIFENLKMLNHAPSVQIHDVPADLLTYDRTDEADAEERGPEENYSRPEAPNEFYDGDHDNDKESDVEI

[22] = system: HCT-116; experiment: Antiproliferative activity against human HCT116 cells after 72 hrs by CCK8 assay; format: functional, cell-based; details: HCT-116, 72 h
[23] = system: Rattus norvegicus; experiment: AUC (0 to infinity) in Sprague-Dawley rat at 2 mg/kg, iv administered as bolus dose by LC-MS/MS analysis; format: ADME, organism-based; design: dose 2 mg/kg, time infinity, route intravenous; details: in vivo
[24] = Terminal half life in Sprague-Dawley rat at 2 mg/kg, iv administered as bolus dose by LC-MS/MS analysis; format: ADME, organism-based; details: in vivo, read-out: beta t1/2 (converted)
[25] = system: Rattus norvegicus; experiment: Volume of distribution at steady state in Sprague-Dawley rat at 2 mg/kg, iv administered as bolus dose by LC-MS/MS analysis; format: ADME, organism-based; details: in vivo
[26] = molecular target: Histone deacetylase 1 (Homo sapiens, UniProt Q13547); experiment: Inhibition of human recombinant full length HDAC1 using fluorogenic substrate 3 after 30 mins by fluorescence assay
Chain of Histone deacetylase 1 (Q13547 whole entry): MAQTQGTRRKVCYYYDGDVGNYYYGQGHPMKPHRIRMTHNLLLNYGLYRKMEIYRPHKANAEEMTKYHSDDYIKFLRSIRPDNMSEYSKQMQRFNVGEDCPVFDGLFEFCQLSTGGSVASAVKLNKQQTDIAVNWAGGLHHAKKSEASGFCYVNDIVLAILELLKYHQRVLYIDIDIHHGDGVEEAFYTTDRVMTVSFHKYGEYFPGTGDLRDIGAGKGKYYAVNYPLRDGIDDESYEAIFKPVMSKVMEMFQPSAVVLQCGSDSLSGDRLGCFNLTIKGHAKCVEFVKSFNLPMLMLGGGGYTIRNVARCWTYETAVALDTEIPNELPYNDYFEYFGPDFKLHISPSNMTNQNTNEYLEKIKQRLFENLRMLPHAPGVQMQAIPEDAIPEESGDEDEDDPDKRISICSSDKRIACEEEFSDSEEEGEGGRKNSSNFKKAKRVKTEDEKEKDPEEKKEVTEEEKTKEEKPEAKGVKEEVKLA

[27] = system: NCI-H1299; experiment: Antiproliferative activity against human NCI-H1299 cells after 72 hrs by CCK8 assay; format: functional, cell-based; details: NCI-H1299, 72 h
[28] = molecular target: Histone deacetylase 2 (Homo sapiens, UniProt Q92769); experiment: Inhibition of HDAC2 (unknown origin) after 30 mins by fluorescence assay
Chain of Histone deacetylase 2 (Q92769 whole entry): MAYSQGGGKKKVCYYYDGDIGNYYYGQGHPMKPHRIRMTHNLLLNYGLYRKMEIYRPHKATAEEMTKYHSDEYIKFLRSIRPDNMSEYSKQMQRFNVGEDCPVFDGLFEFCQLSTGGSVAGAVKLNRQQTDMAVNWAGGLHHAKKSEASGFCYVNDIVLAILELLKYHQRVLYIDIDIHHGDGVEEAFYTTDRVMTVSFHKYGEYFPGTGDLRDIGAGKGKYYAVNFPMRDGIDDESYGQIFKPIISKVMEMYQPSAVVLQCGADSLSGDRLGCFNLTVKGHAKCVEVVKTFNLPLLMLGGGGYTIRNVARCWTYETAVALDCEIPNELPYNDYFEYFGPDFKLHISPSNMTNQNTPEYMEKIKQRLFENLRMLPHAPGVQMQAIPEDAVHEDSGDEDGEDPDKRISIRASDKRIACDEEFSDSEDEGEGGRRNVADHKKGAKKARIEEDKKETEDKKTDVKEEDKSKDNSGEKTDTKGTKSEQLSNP

Question: For `CCOc1cc(C(C)(C)C)ccc1C1=NC(c2ccc(Cl)cc2)C(c2ccc(Cl)cc2)N1C(=O)N1CCN(CCCCCCC(=O)NO)CC1` (stereo not drawn), which Cmax [1] is on record?
Answer: Its Cmax is 1470 ng/mL.

Question: What about the Activity [2] of the same compound?
Answer: Its Activity is “Non-Toxic”.

Question: And the viability at 5 µM [3]?
Answer: The viability at 5 µM was 64.9%.

Question: What about the Cmax [4] of the same compound?
Answer: Its Cmax is 93.7 ng/mL.

Question: And the viability at 1 µM [5]?
Answer: Its viability at 1 µM is 77.2%.

Question: And the AUC [6]?
Answer: Its AUC is 323.23 ng·h/mL.

Question: And the clearance [7]?
Answer: Its clearance is 46.8 mL/min/kg.

Question: And the IC50 [8]?
Answer: Its IC50 is 1220 nM.

Question: And the TGI [9]?
Answer: Its TGI is “Dose-dependent effect”.

Question: What about the Activity [10] of the same compound?
Answer: Its Activity is “Non-Toxic”.

Question: What about the inhibition in vivo at 100 mg/kg [11] of the same compound?
Answer: Its inhibition in vivo at 100 mg/kg is 65.4%.

Question: And the F [12]?
Answer: The F was 18%.

Question: And the IC50 [13]?
Answer: Its IC50 is 17.5 nM.

Question: What about the IC50 [14] of the same compound?
Answer: The IC50 was 4340 nM.

Question: What about the inhibition in vivo at 150 mg/kg [15] of the same compound?
Answer: Its inhibition in vivo at 150 mg/kg is 74.5%.

Question: And the Tmax [16]?
Answer: The Tmax was 3.33 h.

Question: What about the half-life [17] of the same compound?
Answer: Its half-life is 5.87 h.

Question: What about the IC50 [18] of the same compound?
Answer: Its IC50 is 910 nM.

Question: What about the Tmax [19] of the same compound?
Answer: The Tmax was 4.98 min.

Question: What about the Ki [20] of the same compound?
Answer: Its Ki is 110 nM.

Question: What about the IC50 [21] of the same compound?
Answer: The IC50 was 178 nM.

Question: What about the IC50 [22] of the same compound?
Answer: The IC50 was 1080 nM.

Question: What about the AUC [23] of the same compound?
Answer: Its AUC is 716.3 ng·h/mL.

Question: And the half-life [24]?
Answer: Its half-life is 1.22 h.

Question: And the Vdss [25]?
Answer: The Vdss was 4.9 L/kg.

Question: And the IC50 [26]?
Answer: The IC50 was 820 nM.

Question: What about the IC50 [27] of the same compound?
Answer: Its IC50 is 4160 nM.

Question: What about the IC50 [28] of the same compound?
Answer: The IC50 was 420 nM.
